# ChEMBL document CHEMBL1141823, “Malayenolides A-D, novel diterpenes from the indonesian sea pen veretillum malayense” (J Nat Prod, 1999)
# Assay: Toxicity against brine shrimp
# Type: organism-based
# Settings: artemia, in vivo
row,SMILES,LC50
1,CC(=O)O[C@H]1C[C@@H]2O[C@]2(C)[C@@H]2CC3=C(C)C(=O)O[C@H]3/C=C(/C)CC[C@H](OC(=O)C=C(C)C)[C@@]12C [MALAYENOLIDE D],20 µg/mL
2,CC(=O)O[C@H]1CC=C(C)[C@@H]2CC3=C(C)C(=O)O[C@H]3/C=C(/C)CC[C@H](OC(=O)c3ccccc3)[C@@]12C [MALAYENOLIDE A],100 µg/mL
3,CC(=O)O[C@H]1CC=C(C)[C@@H]2CC3=C(C)C(=O)O[C@H]3/C=C(/C)CC[C@H](OC(=O)C=C(C)C)[C@@]12C [MALAYENOLIDE C],20 µg/mL
4,CC(=O)O[C@H]1C[C@@H]2O[C@]2(C)[C@@H]2CC3=C(C)C(=O)O[C@H]3/C=C(/C)CC[C@H](OC(=O)c3ccccc3)[C@@]12C [MALAYENOLIDE B],< 2 µg/mL
